Test system: monoclonal antibody specific against catecholamine metabolites containing 3-methoxy, 4-hydroxy group therein
Test: standard curves for fractionation and determination of ℓ-VMA and HVA in competitive EIA
Assay type: binding, BALB/c mice
Conditions: pH 8.0, amount of less than 1 µM
Source text: Then, VMA-SBA adsorbed onto the solid phase by the action other than the covalent bond was washed with 0.1 N acetic acid containing 0.1% (w/v) SDS.

SMILES	reaction in competitive EIA
COc1cc(C(O)C(=O)O)ccc1O (single isomer, unassigned) [ℓ-VMA]	did not react
COc1cc(C(O)C(=O)O)ccc1O (centres unmarked) [Vanillylmandelic acid]	reacted only

From patent EP0352817A2, “Monoclonal antibody to catecholamine metabolite and quantitative assay for catecholamine metabolite” (ORIENTAL YEAST CO., LTD., priority 1988, dated 1990)
